According to patent publication US7045138B2, “Composition for mitigation of insects and/or mollusca” (American Natural Technology Sciences, Inc., priority 2000, dated 2006):

Test system: Fire Ants
Assay: Fire ant mound field tests of bait/borate formulations
Assay type: in vivo, Solenopsis invicta
Description: The following components were tested either alone or in combinations for their ability to attract Fire Ants: • 1. Cow manure dropping in an infested area; • 2. Pelletized cow manure; • 3. Milk; • 4. Powdered, fresh and pelletized whey; • 5. Sugar solutions of varying concentrations; • 6. Raw fruit and vegetables of various kinds and concentrates; • 7. Various soft drinks containing sugar; • 8. Bacon and other raw meats; • 9. Vegetable and animal oils, both in liquid or solid; • 10. Dog and cat foods in bags, cans, or packaged in some other manner; • 11. Corn or other vegetable products in the form of meal, syrup, cracked, particles and flakes and other particles; • 12. Wheat and rice as bleached and unbleached, flower or granules; • 13. Millet seeds whole and crushed; • 14. Sunflower seeds whole, crushed and with various vegetable oils added; • 15. Microcapsules of whey and other materials, made to hold various, foods, etc.; and • 16. Capsules made of various vegetable water, sugar, starches, proteins, etc. that contain the bait and/or borates and/or DE.
Mounds were selected of varying sizes measured in diameter: • 1. Small mound (1 inch to 6 inches) • 2. Medium mound (6 inches to 3.0 feet) • 3. Large mound (3.0 feet and larger) • 4. Control
When possible, isolated mounds were selected.
The formulations were tested individually at different sites: • 1. Standard was one level teaspoon for a small mound, two for a medium mound and three or more for a large mound; and • 2. Volume vs. weight was noted.
The following data was collected for each site: • 1. Location • 2. Data and time of application • 3. Observation are conducted at: • a. One hour; • b. Four hours; • c. Twelve hours; • d. One day; • e. Two days; • f. Four days; • g. Eight days; • h. Sixteen days; and • i. Intermittent observations based upon climatic conditions. • 4. Weather data collected include: • a. Temperature; • b. Humidity; • c. Rainfall (time of day and extent); and • d. Wind speed and direction • 5. General observations
The time of application is preferably near evening (5 p.m. or later) or early morning (5 a.m. to 9 a.m.).

| Substance | degree of control (DOT combined with whey bait) | acceptance by the Fire Ants (incorporated with the baits tested) | acceptable formulation level for control into the second generation (preliminary data) [%] | acceptable formulation level for first generation control (preliminary data) | performance (5% substituted for the DOT, with whey) |
| --- | --- | --- | --- | --- | --- |
| Disodium octoborate tetrahydrate [DOT] | high degree of control | readily accepted | ~1.0 | ~0.05 % of the formulation |  |
| calcium borate |  |  |  |  | superior performance |
